Source: patent publication US7122528B2, “Use of 5-substituted nucleosides and/or prodrugs thereof in the resistance-free treatment of infectious diseases” (RESPROTECT GmbH, priority 2001, dated 2006)
Where two headings read alike, the source gives them in different places.

How the values were obtained:
[1] = tested on: Escherichia coli J53 (RP4); test: Growth tests: adaptation (resistance development) to aminoglycoside antibiotic with or without BVDU; format: cell-based
Text: Escherichia coli J53 was used as Gram-negative model organism in order to test the effectiveness of BVDU. This organism carries the naturally occurring plasmid RP4, on which resistances to Ampicillin, Tetracycline and Kanamycin are encoded.
The results are illustrated in FIGS. 1 and 2.

[2] = tested on: E. coli J53 (RP4) strains; test: Determination of minimal inhibitory concentrations (MIC) of Kanamycin or Amikacin on starter, adapted and BVDU-pretreated strains; format: cell-based, Escherichia coli; conditions: for MIC: Escherichia coli
Text: In order to determine the minimal inhibitory concentrations (MIC), precultures were used initially for which antibiotic-free culture medium had been inoculated directly from frozen glycerine cultures. […] However even higher antibiotic concentrations still led to the growth of the inoculum. However, the growth inhibition prevented a larger cell density in the bacteria culture being reached.
In order to test the stability of the specific resistance features of the E. coli strains, the MIC determination was repeated. The already tested precultures were again absorbed for this purpose in antibiotic-free culture medium and tested for their Kanamycin resistance. The resistance spectra of the starter strain and of the strain adapted to 64 μg/ml remained unchanged. […] The results are illustrated in FIG. 4.
The results can be deduced from FIG. 6.
(§1) In order to determine the minimal inhibitory concentrations (MIC) of Kanamycin or Amikacin relative to aminoglycoside/BVDU-pretreated E coli J53 (RP4) strains, standard precultures were used which contained no additives in the culture medium (recovery phase). In addition, it was tested in comparative experiments to what extent the addition of BVDU to the antibiotic-free precultures changes the resistant spectrum of the strains.

Leidshmania donovanii = test: Prevention of methotrexate resistance development in Leishmania by gradual increase in MTX concentration; format: cell-based
Experimental: Prevention of resistance development in Zooflagellates (Leishmania) by the simultaneous administration of the anti-recombinogenic 5-substituted nucleoside (E)-5-(2-bromovinyl)2′-deoxyuridines (BVDU) with methotrexate.
Methotrexate (MTX) resistant cells of Leidshmania donovanii were produced by gradual increase in the MTX concentrations of 5 to 10, of 10 to 50 and of 50 to 100 μm MTX. 5×10^6 cells/ml respectively were seeded in the growth medium. The cells were diluted again to 5×10^6 cells/ml for each new batch. The cells were then constantly subjected to the next higher MTX concentration when the cell division rate of the MTX-subjected cells had stabilised to the control level. […] The result of this test can be seen in a simplified version in FIGS. 9 and 10.

[3] = tested on: aminoglycoside/BVDU-pretreated E coli J53 (RP4) strains; test: BVDU conditioned growth inhibition after aminoglycoside/BVDU pretreatment; format: cell-based, Escherichia coli
Experimental: as §1
In comparison therewith, the growth without antibiotic in the additive-free preculture corresponded to that of the untreated E. coli strain. The results are illustrated in FIGS. 7 and 8.

[4] = 1 μg/ml BVDU added simultaneously with MTX

NCC[C@H](O)C(=O)N[C@@H]1C[C@H](N)[C@@H](O[C@H]2O[C@H](CN)[C@@H](O)[C@H](O)[C@H]2O)[C@H](O)[C@H]1O[C@H]1O[C@H](CO)[C@@H](O)[C@H](N)[C@H]1O [Amikacin]
adaptation, i.e. resistance development, to the antibiotic ([1]; Amikacin 0.25 μg/ml alone, E coli J53 (RP4)): slow adaptation, i.e. resistance development
MIC ([2]; strain which had become resistant to 0.25 μg/ml Amikacin, read-out: MIC of Amikacin): 2 µg/mL
Amikacin concentration from which growth inhibition was shown ([2]; strain grown in the presence of 2 μg/ml BVDU (no resistance to 0.25 μg/ml Amikacin)): 0.125 µg/mL
increase of Amikacin MIC relative to the starter strain ([2]; strain which had become resistant to 0.25 μg/ml Amikacin): eight times increased

CN(Cc1cnc2nc(N)nc(N)c2n1)c1ccc(C(=O)N[C@@H](CCC(=O)O)C(=O)O)cc1 [MTX, Methotrexate]
passages until cell division rate stabilised to the control level (Leidshmania donovanii; MTX alone, steps 5 to 10, 10 to 50, 50 to 100 μm MTX): approximately three to four passages

O=c1[nH]c(=O)n([C@H]2C[C@H](O)[C@@H](CO)O2)cc1/C=C/Br [BVDU, (E)-5-(2-bromovinyl)-2-deoxyuridines]
effect on resistance development/adaptation to Kanamycin ([1]; BVDU 1 μg/ml in presence of Kanamycin 64 μg/ml, E. coli J53 (RP4)): inhibition of this resistance development/adaptation
effect on adaptation to Amikacin ([1]; BVDU 2 μg/ml in presence of Amikacin 0.25 μg/ml, E coli J53 (RP4)): inhibition of this adaptation
growth of aminoglycoside/BVDU-pretreated E. coli strains in the absence of the antibiotic ([3]; BVDU 1 or 2 μg/ml in the preculture or/and 0.04–0.05 μg/ml in the MIC batches): sustained restriction of the growth
effect of BVDU without pretreatment (antibiotic+BVDU) ([3]; no pretreatment): no effect
toxicity of BVDU without pretreatment ([3]; no pretreatment): not toxic
cell division rate relative to control level (Leidshmania donovanii; [4]): never reached the control level
resistance development to MTX treatment (Leidshmania donovanii; [4]): no resistance to the treatment

NC[C@H]1O[C@H](O[C@H]2[C@H](O)[C@@H](O[C@H]3O[C@H](CO)[C@@H](O)[C@H](N)[C@H]3O)[C@H](N)C[C@@H]2N)[C@H](O)[C@@H](O)[C@@H]1O [Kanamycin]
MIC ([2]; strain pretreated with 64 μg/ml Kanamycin + 1 μg/ml BVDU, repeated MIC determination, read-out: Kanamycin concentration from which growth of the inoculum was completely prevented (MIC)): 32 µg/mL
MIC ([2]; strain which had become resistant to 64 μg/ml Kanamycin, read-out: MIC of Kanamycin): 128 µg/mL
Kanamycin concentration from which growth inhibition was shown ([2]; strain grown in the presence of 1 μg/ml BVDU (no resistance to 64 μg/ml Kanamycin), first MIC determination): 16 µg/mL
